Experimental data taken from ChEMBL document CHEMBL5329169, “Recent developments in membrane targeting antifungal agents to mitigate antifungal resistance” (2023).
In brackets after ≈: the same amount, converted by molar mass. One block for each compound: values may come before it.

Key:
Type in all cases: functional
Candida albicans [1] = experiment: Antifungal activity against Candida albicans SC5314 assessed as log reduction in fungal growth at 2x MIC measured after 6 hrs
Candida albicans [2] = experiment: Antifungal activity against Candida albicans ATCC 10231 assessed as fungal growth inhibition measured after 24 hrs by two fold serial dilution technique
Candida albicans [3] = experiment: Antifungal activity against Candida albicans assessed as fungal growth inhibition measured after 48 hrs by broth microdilution assay
Cryptococcus neoformans = experiment: Antifungal activity against Cryptococcus neoformans H99 assessed as fungal growth inhibition measured after 20 hrs by microplate assay
Candida albicans [4] = experiment: Antifungal activity against Candida albicans SC5314 assessed as fungal growth inhibition measured after 20 hrs by microplate assay

Compound: H-GIWKKWIKKWLKKLKNLF-NH2
Activity (Candida albicans [1]): 5.55 log reduction

Compound: C[C@H](CCC(=O)O)[C@H]1CC[C@H]2[C@@H]3CC[C@@H]4C[C@H](O)CC[C@]4(C)[C@H]3CC[C@]12C [LITHOCHOLIC ACID]
MIC80 (Candida albicans [3]): 3.12 µg/mL (≈ 8.29 µM)

Compound: CCCCCCCCCCN(Cc1cccc2ccccc12)C(=O)C(N)CCCCN (stereo unspecified)
MIC80 (Cryptococcus neoformans): 3.1 µg/mL (≈ 7.28 µM)
MIC80 (Candida albicans [4]): 12.5 µg/mL (≈ 29.4 µM)

Results, then the compound that gave them:

MIC80 (Candida albicans [2]): 0.25 µg/mL
Compound: C[C@H](CCCn1cc[n+](C)c1)[C@H]1CC[C@H]2[C@@H]3CC[C@@H]4C[C@H](O)CC[C@]4(C)[C@H]3CC[C@]12C.[I-]

MIC80 (Candida albicans [2]): 0.5 µg/mL
Compound: CC[n+]1ccn(CCC[C@@H](C)[C@H]2CC[C@H]3[C@@H]4CC[C@@H]5C[C@H](O)CC[C@]5(C)[C@H]4CC[C@]23C)c1.[I-]
